Values after ≈ are worked out from the molar mass of the structure shown.
Legend:
[1] = system: Staphylococcus epidermidis; assay: Antibacterial activity against methicillin-resistant Staphylococcus epidermidis after 16 hrs by agar dilution method; type: functional
Staphylococcus aureus [2] = assay: Antibacterial activity against linezolid-resistant Staphylococcus aureus after 16 hrs by agar dilution method; type: functional
Staphylococcus aureus [3] = assay: Antibacterial activity against Staphylococcus aureus ATCC 29213 after 16 hrs by agar dilution method; type: functional; conditions: ATCC 29213, 16 h
Enterococcus faecalis [4] = assay: Antibacterial activity against linezolid-resistant Enterococcus faecalis after 16 hrs by agar dilution method; type: functional
Enterococcus faecalis [5] = assay: Antibacterial activity against Enterococcus faecalis after 16 hrs by agar dilution method; type: functional
Enterococcus faecium [6] = assay: Antibacterial activity against linezolid-resistant Enterococcus faecium after 16 hrs by agar dilution method; type: functional
Staphylococcus aureus [7] = assay: Antibacterial activity against methicillin-resistant Staphylococcus aureus after 16 hrs by agar dilution method; type: functional
[8] = system: Staphylococcus epidermidis; assay: Antibacterial activity against linezolid-resistant Staphylococcus epidermidis after 16 hrs by agar dilution method; type: functional
Streptococcus pneumoniae [9] = assay: Antibacterial activity against penicillin-resistant Streptococcus pneumoniae after 16 hrs by agar dilution method; type: functional
Streptococcus pneumoniae [10] = assay: Antibacterial activity against penicillin-resistant Streptococcus pneumoniae after 16 hrs by agar dilution method relative to Linezolid; type: functional
Enterococcus faecalis [11] = assay: Antibacterial activity against Linezolid-resistant Enterococcus faecalis after 16 hrs by agar dilution method relative to Linezolid; type: functional
[12] = Tmax in Sprague-Dawley rat at 50 mg/kg, po by LC-MS analysis; type: ADME, organism-based; design: dose 50 mg/kg, route oral; conditions: in vivo
Enterococcus faecium [13] = assay: Antibacterial activity against Linezolid-resistant Enterococcus faecium after 16 hrs by agar dilution method relative to Linezolid; type: functional
Staphylococcus aureus [14] = assay: Antibacterial activity against Staphylococcus aureus ATCC 29213 after 16 hrs by agar dilution method relative to Linezolid; type: functional
[15] = AUC (0 to infinity) in Sprague-Dawley rat at 50 mg/kg, po by LC-MS analysis; type: ADME, organism-based; design: time infinity, dose 50 mg/kg, route oral; conditions: plasma
Staphylococcus aureus [16] = assay: Antibacterial activity against Staphylococcus aureus ATCC 19636 infected in mouse systemic infection model administered orally 1 hour after infection measured 48 hrs of post-treatment; type: functional; conditions: ATCC 19636, po
[17] = system: Staphylococcus epidermidis; assay: Antibacterial activity against Linezolid-resistant Staphylococcus epidermidis after 16 hrs by agar dilution method relative to Linezolid; type: functional
Staphylococcus aureus [18] = assay: Antibacterial activity against methicillin-resistant Staphylococcus aureus ATCC 33591 infected in NSA mouse neutropenic model administered orally 1 hour after infection measured 48 hrs post-treatment; type: functional; conditions: ATCC 33591, po
[19] = Clearance in Sprague-Dawley rat at 10 mg/kg, iv by LC-MS analysis; type: ADME, organism-based; design: dose 10 mg/kg, route intravenous; conditions: in vivo
[20] = Half life in Sprague-Dawley rat at 50 mg/kg, po by LC-MS analysis; type: ADME, organism-based; design: dose 50 mg/kg, route oral; conditions: in vivo
Enterococcus faecalis [21] = assay: Antibacterial activity against Enterococcus faecalis after 16 hrs by agar dilution method relative to Linezolid; type: functional
[22] = system: Staphylococcus epidermidis; assay: Antibacterial activity against methicillin-resistant Staphylococcus epidermidis after 16 hrs by agar dilution method relative to Linezolid; type: functional
[23] = AUC (0 to infinity) in Sprague-Dawley rat at 10 mg/kg, iv by LC-MS analysis; type: ADME, organism-based; design: time infinity, dose 10 mg/kg, route intravenous; conditions: plasma
Staphylococcus aureus [24] = assay: Antibacterial activity against Linezolid-resistant Staphylococcus aureus after 16 hrs by agar dilution method relative to Linezolid; type: functional
[25] = Half life in Sprague-Dawley rat at 10 mg/kg, iv by LC-MS analysis; type: ADME, organism-based; design: dose 10 mg/kg, route intravenous; conditions: in vivo
[26] = Oral bioavailability in Sprague-Dawley rat at 50 mg/kg by LC-MS analysis; type: ADME, organism-based; conditions: in vivo
[27] = Cmax in Sprague-Dawley rat at 50 mg/kg, po by LC-MS analysis; type: ADME, organism-based; design: dose 50 mg/kg, route oral; conditions: in vivo

Structure (SMILES)	MIC [1]	MIC (Staphylococcus aureus [2])	MIC (Staphylococcus aureus [3])	MIC (Enterococcus faecalis [4])	MIC (Enterococcus faecalis [5])	MIC (Enterococcus faecium [6])	MIC (Staphylococcus aureus [7])	MIC [8]	MIC (Streptococcus pneumoniae [9])	also measured
CC(=O)NC[C@@H]1OC(=O)N2c3ccc(-c4ccc(C5(C#N)CC5)nc4)cc3OC[C@@H]12	0.5 µg/mL (≈ 1.24 µM)	8 µg/mL (≈ 19.8 µM)	0.5 µg/mL (≈ 1.24 µM)	1 µg/mL (≈ 2.47 µM)	0.5 µg/mL (≈ 1.24 µM)	1 µg/mL (≈ 2.47 µM)	0.5 µg/mL (≈ 1.24 µM)	1 µg/mL (≈ 2.47 µM)	0.5 µg/mL (≈ 1.24 µM)	
CC(=O)NC[C@@H]1OC(=O)N2c3ccc(-c4ccc(N5CCOC5=O)nc4)cc3OC[C@@H]12	0.125 µg/mL (≈ 0.295 µM)	2 µg/mL (≈ 4.71 µM)	0.25 µg/mL (≈ 0.589 µM)	1 µg/mL (≈ 2.36 µM)	0.5 µg/mL (≈ 1.18 µM)	0.5 µg/mL (≈ 1.18 µM)	0.125 µg/mL (≈ 0.295 µM)	1 µg/mL (≈ 2.36 µM)	0.25 µg/mL (≈ 0.589 µM)	fold change (FC) (Streptococcus pneumoniae [10]): 4; fold change (FC) (Enterococcus faecalis [11]): 8; Tmax [12]: 6 h; fold change (FC) (Enterococcus faecium [13]): 8; fold change (FC) (Staphylococcus aureus [14]): 4; AUC(0-inf) [15]: 123 µg·h/mL; ED50 (Staphylococcus aureus [16]): 11.3 mg/kg; fold change (FC) [17]: 8; ED50 (Staphylococcus aureus [18]): 9.5 mg/kg; clearance [19]: 1.28 mL/min/kg; half-life [20]: 282 min; fold change (FC) (Enterococcus faecalis [21]): 4; fold change (FC) [22]: 4; AUC(0-inf) [23]: 136 µg·h/mL; fold change (FC) (Staphylococcus aureus [24]): 8; half-life [25]: 222 min; bioavailability [26]: 18%; Cmax [27]: 9000 ng/mL
CC(=O)NC[C@@H]1OC(=O)N2c3ccc(-c4ccc(-c5nnnn5C)nc4)cc3OC[C@@H]12	0.25 µg/mL (≈ 0.593 µM)	4 µg/mL (≈ 9.49 µM)	0.5 µg/mL (≈ 1.19 µM)	1 µg/mL (≈ 2.37 µM)	0.5 µg/mL (≈ 1.19 µM)	1 µg/mL (≈ 2.37 µM)	0.25 µg/mL (≈ 0.593 µM)	2 µg/mL (≈ 4.75 µM)	0.25 µg/mL (≈ 0.593 µM)	
CC(=O)NC[C@@H]1OC(=O)N2c3ccc(-c4ccc(C5(N)CC5)nc4)cc3OC[C@@H]12	0.25 µg/mL (≈ 0.634 µM)	16 µg/mL (≈ 40.6 µM)	0.25 µg/mL (≈ 0.634 µM)	4 µg/mL (≈ 10.1 µM)	0.5 µg/mL (≈ 1.27 µM)	4 µg/mL (≈ 10.1 µM)	0.25 µg/mL (≈ 0.634 µM)	4 µg/mL (≈ 10.1 µM)	0.5 µg/mL (≈ 1.27 µM)	
CC(=O)NC[C@@H]1OC(=O)N2c3ccc(-c4ccc(C#CCO)nc4)cc3OC[C@@H]12	0.25 µg/mL (≈ 0.635 µM)	4 µg/mL (≈ 10.2 µM)	0.5 µg/mL (≈ 1.27 µM)	1 µg/mL (≈ 2.54 µM)	0.5 µg/mL (≈ 1.27 µM)	1 µg/mL (≈ 2.54 µM)	0.25 µg/mL (≈ 0.635 µM)	1 µg/mL (≈ 2.54 µM)	0.5 µg/mL (≈ 1.27 µM)	
COc1ccc(-c2ccc3c(c2)OC[C@H]2[C@H](CNC(C)=O)OC(=O)N32)cn1	0.5 µg/mL (≈ 1.35 µM)	4 µg/mL (≈ 10.8 µM)	0.25 µg/mL (≈ 0.677 µM)	2 µg/mL (≈ 5.41 µM)	0.5 µg/mL (≈ 1.35 µM)	1 µg/mL (≈ 2.71 µM)	0.5 µg/mL (≈ 1.35 µM)	2 µg/mL (≈ 5.41 µM)	0.5 µg/mL (≈ 1.35 µM)	
CC(=O)NC[C@@H]1OC(=O)N2c3ccc(-c4ccc(N)nc4)cc3OC[C@@H]12	0.5 µg/mL (≈ 1.41 µM)	16 µg/mL (≈ 45.2 µM)	0.5 µg/mL (≈ 1.41 µM)	2 µg/mL (≈ 5.64 µM)	0.5 µg/mL (≈ 1.41 µM)	2 µg/mL (≈ 5.64 µM)	0.5 µg/mL (≈ 1.41 µM)	4 µg/mL (≈ 11.3 µM)	0.5 µg/mL (≈ 1.41 µM)	
CC(=O)NC[C@H]1CN(c2ccc(N3CCOCC3)c(F)c2)C(=O)O1 [LINEZOLID]	1 µg/mL (≈ 2.96 µM)	> 16 µg/mL	1 µg/mL (≈ 2.96 µM)			8 µg/mL (≈ 23.7 µM)	1 µg/mL (≈ 2.96 µM)	16 µg/mL (≈ 47.4 µM)		ED50 (Staphylococcus aureus [16]): 9.5 mg/kg; ED50 (Staphylococcus aureus [18]): 14.1 mg/kg
CC(=O)NC[C@@H]1OC(=O)N2c3ccc(-c4ccc(C(C)=O)nc4)cc3OC[C@@H]12	0.25 µg/mL (≈ 0.656 µM)	2 µg/mL (≈ 5.24 µM)	0.5 µg/mL (≈ 1.31 µM)	1 µg/mL (≈ 2.62 µM)	0.5 µg/mL (≈ 1.31 µM)	1 µg/mL (≈ 2.62 µM)	0.25 µg/mL (≈ 0.656 µM)	1 µg/mL (≈ 2.62 µM)	0.5 µg/mL (≈ 1.31 µM)	fold change (FC) (Enterococcus faecalis [11]): 8; fold change (FC) (Enterococcus faecium [13]): 8; ED50 (Staphylococcus aureus [16]): > 20 mg/kg; fold change (FC) [17]: 8; fold change (FC) (Staphylococcus aureus [24]): 8
CC(=O)NC[C@@H]1OC(=O)N2c3ccc(-c4cnc(C#N)nc4)cc3OC[C@@H]12	0.5 µg/mL (≈ 1.37 µM)		1 µg/mL (≈ 2.74 µM)		2 µg/mL (≈ 5.47 µM)		1 µg/mL (≈ 2.74 µM)		2 µg/mL (≈ 5.47 µM)	
CC(=O)NC[C@@H]1OC(=O)N2c3ccc(-c4cccc([N+](=O)[O-])c4)cc3OC[C@@H]12	0.5 µg/mL (≈ 1.3 µM)		0.5 µg/mL (≈ 1.3 µM)		2 µg/mL (≈ 5.22 µM)		0.5 µg/mL (≈ 1.3 µM)		0.5 µg/mL (≈ 1.3 µM)	
CC(=O)NC[C@@H]1OC(=O)N2c3ccc(-c4ccc(C#N)nc4)cc3OC[C@H]12	> 16 µg/mL		> 16 µg/mL		> 16 µg/mL		> 16 µg/mL		> 16 µg/mL	
CC(=O)NC[C@@H]1OC(=O)N2c3ccc(-c4ccc([N+](=O)[O-])nc4)cc3OC[C@@H]12	0.25 µg/mL (≈ 0.65 µM)	2 µg/mL (≈ 5.2 µM)	0.125 µg/mL (≈ 0.325 µM)	1 µg/mL (≈ 2.6 µM)	0.5 µg/mL (≈ 1.3 µM)	1 µg/mL (≈ 2.6 µM)	0.25 µg/mL (≈ 0.65 µM)	2 µg/mL (≈ 5.2 µM)	0.5 µg/mL (≈ 1.3 µM)	
CC(=O)NC[C@@H]1OC(=O)N2c3ccc(N4CCN(Cc5ccccn5)CC4)cc3OC[C@@H]12	> 16 µg/mL		16 µg/mL (≈ 36.6 µM)		> 16 µg/mL		> 16 µg/mL		> 16 µg/mL	
CC(=O)NC[C@@H]1OC(=O)N2c3ccc(N4CCN(Cc5cccc([N+](=O)[O-])c5)CC4)cc3OC[C@@H]12	> 16 µg/mL		> 16 µg/mL		> 16 µg/mL		> 16 µg/mL		> 16 µg/mL	
CC(=O)NC[C@@H]1OC(=O)N2c3ccc(-c4ccc(N5CCNCC5)nc4)cc3OC[C@@H]12	0.5 µg/mL (≈ 1.18 µM)		0.5 µg/mL (≈ 1.18 µM)		0.5 µg/mL (≈ 1.18 µM)		1 µg/mL (≈ 2.36 µM)		1 µg/mL (≈ 2.36 µM)	
COC(=O)c1ccc(-c2ccc3c(c2)OC[C@H]2[C@H](CNC(C)=O)OC(=O)N32)cn1	0.5 µg/mL (≈ 1.26 µM)		0.5 µg/mL (≈ 1.26 µM)		1 µg/mL (≈ 2.52 µM)		0.5 µg/mL (≈ 1.26 µM)		1 µg/mL (≈ 2.52 µM)	
